From patent publication US20250108036A1, “COMPOSITIONS FOR REMOVING SENESCENT CELLS AND USES THEREOF” (LIFECEUTIX CO., LTD., priority 2021, published 2025)

Columns and labels:
[1] = system: aging-related inflammation and fibrosis secretory factors (SASP); assay: ProcartaPlex immunoassay of SASP factors in culture medium of senescent foreskin cells (Example 5); format: cell-based, human; details: LX-112 3 μM; senescent untreated = 100%
Experimental: In the same manner as Example 3, natural aging of human foreskin cells was induced and treated with LX-112 at a concentration of 3 μM. Then the expression levels of aging-related inflammation and fibrosis secretory factors (SASP), IL1α, IL1β, IL6, IL10, MCP1, PAI1 VCAM1, MMP1, MMP2, MMP3, MMP12, and TGFβ, were measured using an immunoassay (ProcartaPlex Immunoassay, purchased from Thermo Fisher Scientific) with the obtained culture medium. […] Table 17 calculates the amount of each factor after inducing aging to 100% and compares it with the amount of each factor after treatment with LX-112.

SA-β-gal = SA-β-gal staining of tissue sections of naturally aged mice (Example 7-3); format: in vivo, C57BL6J mice; details: stained area, LX-112 70 mg/kg oral daily 21 days
Experimental: (§1) After 22-month-old female C57BL6J mice (purchased from KRIBB Laboratory Animal Resource Center) were adapted to the experimental environment for one week, the aged mice were randomized into an experimental group and a control group. 8-week-old mice that were not aged were used as controls. LX-112 was mixed with 0.5% CMC-Na solution (purchased from Sigma) and administered orally at a concentration of 70 mg/kg daily for 21 days. The control group was administered only the solution in the same volume. After drug administration was completed, the method described in each Example below was performed.
The mouse was sacrificed, tissue sections were prepared from the organ tissues of each region, and stained for an aging marker (SA-β-gal) in the same manner as Example 1-1. Specifically, fat was removed from the tissues of each area collected from mice and fixed in 4% formalin at room temperature for more than 24 hours. For cryopreservation, the cells were placed in 30% sucrose for more than 8 hours and then rapidly frozen in cryoprotectant OCT medium for cryosectioning. The rapidly frozen tissue was commissioned to Histoa, a company specializing in histopathology services, and frozen sections were produced. The prepared frozen tissue sections were cut to a thickness of 8 μm, sectioned on a slide cover, dried at room temperature for 30 minutes, and then stored at −80° C. until use. After staining the aging marker (SA-β-gal), the images were taken through an optical microscope, and the area of the stained area was calculated using the Image J program and quantified by normalizing it based on the total area. […] FIG. 2 is a photo result of staining of adipose tissue.

[2] = system: MMP3, IL1β, MMP12, IL6, MMP13; assay: SASP mRNA qRT-PCR in organ tissues of naturally aged mice (Example 7-6); format: in vivo, C57BL6J mice; details: LX-112 70 mg/kg oral daily 21 days, aged untreated = 100%
Experimental: as §1
Using cDNA synthesized in the same manner as in Example 7-2, qRT-PCR was performed and analyzed for MMP3, IL1β, MMP12, IL6, and MMP13, which are aging-related inflammation and fibrosis secretory factors (SASP). […] Table 31 calculates the mRNA amount of each factor after senescence was induced as 100% and compared it with the mRNA amount of each factor after treatment with LX-112.

[3] = system: urea, creatinine, Agtr1a mRNA; assay: kidney damage markers in naturally aged mice (Example 7-8); format: in vivo, C57BL6J mice; details: LX-112 70 mg/kg oral daily 21 days, aged untreated = 100%
Experimental: as §1
The amounts of urea and creatinine, markers of kidney damage, in serum collected from mice were measured by spectrophotometry using a kit (purchased from BioAssay Systems and Sigma). Additionally, the amount of Agtr1a mRNA, a kidney damage marker, was measured by qRT-PCR as described in Example 7-2. […] The amount of each factor after inducing aging was calculated as 100% and compared with the amount of each factor after treatment with LX-112.

p16, p21 = assay: p16 and p21 mRNA qRT-PCR in doxorubicin-aged mice (Example 8-2); format: in vivo, C57BL6J mice; details: doxorubicin-aged mice, LX-112 70 mg/kg oral daily 21 days; DOX without LX = 100%
Experimental: (§2) After adapting 8-week-old male C57BL6J mice (purchased from KRIBB Laboratory Animal Resource Center) to the experimental environment for 1 week, doxorubicin, an anticancer drug, was administered intraperitoneally at a concentration of 10 mg/kg, and mice that were induced to age for more than 10 days were assigned to an experimental group and a control group. LX-112 was mixed with 0.5% CMC-Na solution (purchased from Sigma) and administered orally at a concentration of 70 mg/kg daily for 21 days. The control group was administered only the solution in the same volume. After drug administration was completed, the method described in each Example below was performed.
The mouse was sacrificed in the same manner as in Example 7-2, RNA was extracted from the organ tissue of each region, and qRT-PCR was performed and analyzed using the synthesized cDNA. […] Table 37 calculates the mRNA amounts of p16 and p21 after aging was induced by treatment with the anticancer drug as 100% and compared them with the mRNA amounts of p16 and p21 after treatment with LX-112.

IL6, CXCL1, CXCL10, IL1β = assay: SASP mRNA qRT-PCR in doxorubicin-aged mice (Example 8-6); format: in vivo, C57BL6J mice; details: doxorubicin-aged mice, LX-112 70 mg/kg oral daily 21 days; DOX without LX = 100%
Experimental: as §2
Using cDNA synthesized in the same manner as Example 7-6, qRT-PCR was performed and analyzed for aging-related inflammation and fibrosis secretory factors (SASP) such as IL6, CXCL1, CXCL10, and IL1β. […] Table 45 calculates the mRNA amount of each factor after aging was induced by treatment with the anticancer drug as 100% and compared it with the mRNA amount of each factor after treatment with LX-112.

HMGB1 = HMGB1 ELISA in culture medium of senescent foreskin cells (Example 10, Table 62); format: cell-based, human
Experimental: After 6 hours, the amounts of HMGB1 and HMGN1 secreted into the cell culture medium were measured using an enzyme-linked immunosorbent assay (ELISA Kit, purchased from AssayGenie).

With O=c1c2ccccc2[se]n1CCn1[se]c2ccccc2c1=O [LX-112, 1,2-[bis(1,2-benzisoselenazolone-3(2H)-ketone)]ethane] the “Protein (%) IL1α” value [1] was 57 (±5) %, the “Protein (%) IL1β” value [1] was 46 (±6) % and the “Protein (%) IL6” value [1] was 41 (±4) %. For the same compound, the “Protein (%) IL10” value [1] was 57 (±7) %, the “Protein (%) MCP1” value [1] was 38 (±8) % and the “Protein (%) MMP1” value [1] was 43 (±3) %. The “Protein (%) MMP2” value [1] was 39 (±9) %, the “Protein (%) MMP3” value [1] was 38 (±8) % and the “Protein (%) MMP12” value [1] was 41 (±6) %. For the same compound, the “Protein (%) PAI1” value [1] was 41 (±4) %, the “Protein (%) TGFβ” value [1] was 49 (±9) % and the “Protein (%) VCAM1” value [1] was 45 (±5) %. The “SA-β-gal (%) Kidney” value (SA-β-gal) was 55 (±17) %, the “SA-β-gal (%) Liver” value (SA-β-gal) was 58 (±6) % and the “SA-β-gal (%) Lung” value (SA-β-gal) was 67 (±6) %. The “SA-β-gal (%) Skin” value (SA-β-gal) was 68 (±9) %, the “SA-β-gal (%) eWAT” value (SA-β-gal) was 38 (±7) % and the “mRNA (%) Kidney IL1β” value [2] was 67 (±3.9) %. For the same compound, the “mRNA (%) Liver MMP3” value [2] was 75 (±13) %, the “mRNA (%) Lung MMP 12” value [2] was 81 (±13) % and the “mRNA (%) Muscle IL6” value [2] was 65 (±21) %. The “mRNA (%) Skin MMP3” value [2] was 92 (±6) %, the “mRNA (%) Skin MMP12” value [2] was 78 (±14) % and the “mRNA (%) Skin MMP13” value [2] was 95 (±2) %. The “Agtr1a mRNA (%)” value ([3]; kidney damage marker) was 64 (±7) %, the “Creatinine (%)” value ([3]; serum) was 87 (±7.8) % and the “Urea (%)” value ([3]; serum) was 69 (±6) %. The “p16 mRNA (%) Kidney” value (p16, p21) was 75 (±14.81) %, the “p16 mRNA (%) Liver” value (p16, p21) was 70 (±8.3) % and the “p16 mRNA (%) eWAT” value (p16, p21) was 72 (±18.75) %. For the same compound, the “p21 mRNA (%) Kidney” value (p16, p21) was 83.8 (±9.5)^ %, the “p21 mRNA (%) Liver” value (p16, p21) was 78 (±11.5) % and the “p21 mRNA (%) eWAT” value (p16, p21) was 68.4 (±15.1)^ %. For the same compound, the “mRNA (%) CXCL1, Liver” value (IL6, CXCL1, CXCL10, IL1β) was 68 (±21.1) %, the “mRNA (%) CXCL1, eWAT” value (IL6, CXCL1, CXCL10, IL1β) was 94.8 (±1.2)^ % and the “mRNA (%) CXCL10, Liver” value (IL6, CXCL1, CXCL10, IL1β) was 84 (±11.5) %. The “mRNA (%) CXCL10, eWAT” value (IL6, CXCL1, CXCL10, IL1β) was 74 (±11) %, the “mRNA (%) IL1β, Liver” value (IL6, CXCL1, CXCL10, IL1β) was 42 (±35.2) % and the “mRNA (%) IL1β, eWAT” value (IL6, CXCL1, CXCL10, IL1β) was 38 (±37) %. For the same compound, the “mRNA (%) IL6, Liver” value (IL6, CXCL1, CXCL10, IL1β) was 42 (±23.5) %, the “mRNA (%) IL6, eWAT” value (IL6, CXCL1, CXCL10, IL1β) was 48.6 (±12.5) % and the “HMGB1 (pg/ml)” value (HMGB1; 10 μM, culture medium after 6 hours, senescent foreskin cells) was 454.9 (±22.4) pg/ml. For the same compound, the “HMGB1 secreted in the culture medium from dying senescent cells” value (HMGB1; ABT-263 1 μM or LX-112 10 μM, 6 hours) was “little change”.
